Results: US12280090B2, “Antimicrobial peptides” (priority 2018, dated 2025)
Values after ≈ are worked out from the molar mass of the structure shown. Where two headings read alike, the source gives them in different places. Peptide text beside a SMILES is read from it.

How the values were obtained:
Format in all cases: cell-based
[1] = test system: Escherichia coli—ATCC 25922 “wild type”
Procedure: (§1) Independent experiments were conducted with four strains of E. coli, including ATCC E. coli (Escherichia coli—ATCC 25922 “wild type”); ESBL E. coli (Escherichia coli—Extended spectrum beta-lactamase); CPO E. coli (KPC) (Escherichia coli—Carbapenemase-producing organism; Klebsiella pneumoniae carbapenemase); and CPO E. coli (NDM) (Escherichia coli—Carbapenemase-producing organism; New-Dehli Metallobetalactamase).
(§2) The ATCC (American Type Culture Collection) strains received from Cedarlane. Multi drug resistant (MDR) strains, as clinical isolates, were received from the laboratory of Dr. Linda Hoang.
(§3) Putative antimicrobial peptides were synthesized by GeneScript. A-list antimicrobial peptides re-synthesized by GeneScript. P2_CCH, P5_CCH, and P5_CCH_A19K were each synthesized under two conditions: standard synthesis using TFA, and the other with TFA-removal using acetate as a counter-ion. A MIC method, adapted for use with cationic antimicrobial peptides, was used to evaluate MIC antimicrobial activity (Hancock 1999).
(§4) The following data are presented to show the activity (MIC/MBC in μg/mL) of certain antimicrobial peptides described herein relative to a modified/synthetic version having a specified substitution. While data presented in tables above may be presented again, or may be represented in data provided in the tables below, such duplication is believed to assist the reader in readily noting comparisons. Different Run Numbers noted in the following tables denotes experiments conducted on different days, with each run reflecting multiple n values.

[2] = test system: Escherichia coli—Carbapenemase-producing organism; Klebsiella pneumoniae carbapenemase
Procedure: as §1, §2, §3, §4

[3] = test system: Escherichia coli—Carbapenemase-producing organism; New-Dehli Metallobetalactamase
Procedure: as §1, §2, §3, §4

[4] = test system: Escherichia coli—Extended spectrum beta-lactamase
Procedure: as §1, §2, §3, §4

[5] = test system: Salmonella Heidelberg (MDR)
Excerpt: as §2, §3, §4

[6] = test system: Escherichia coli: ATCC 9723H; conditions: ATCC 9723
Procedure: (§5) Microtiter broth dilution assays. HP2, HP3, and HP5 peptides are comprised of novel sequences that have not yet been described in the AMP literature. A common method for establishing antimicrobial activity of peptides is to perform microtiter broth assays. Microtiter broth dilution methods were implemented for determination of the minimum inhibitory concentration (MIC) and minimum bactericidal concentration (MBC). HP3 and HP5 were tested in addition to Ranatuerin-1/HP4 peptide as a positive control. HP2 could not be tested because multiple peptide synthesis attempts failed. The human cathelicidin, LL-37^30 was used as an additional positive control, and an unrelated similarly sized cationic peptide from the T. pallidum protein Tp0751 was used as a negative control. The potential AMPs were tested against bacteria representative of all three types of known cell envelope (Gram-positive, negative, and the complex and unique mycobacterial cell wall/envelope), given that a major mechanism used by AMPs is cell wall/membrane targeting.
(§6) Microtiter broth dilution assays. To test for antimicrobial activity, HP3, HP4/Ranatuerin-1, and HP5, peptides were synthesized by GenScript (Piscataway, New Jersey, USA). HP2 was not tested because the service provider was unable to synthesize this peptide despite multiple attempts. An unrelated, similarly-sized peptide from the Treponema pallidum protein Tp0751^55 was used as a negative control and the human cathelicidin, LL-37^30, was included as a positive control. Peptides were dissolved in filter-sterilized ultrapure water and tested for sterility by plating on non-selective agar plates followed by a 48 h incubation at 37° C. Two-fold serial dilutions of each peptide were prepared to obtain a series corresponding to ten times the required testing concentrations (2560, 1280, 640, 320, 160, 80, 40, 20, 10, and 5 μg/mL)^29.
(§7) Microtiter broth dilution methods were implemented for determination of the minimum inhibitory concentration (MIC) and minimum bactericidal concentration (MBC) of the four putative AMPs and the negative control peptide using procedures adapted from the R.E.W. Hancock Laboratory for cationic AMPs^29 and the CLSI methods for dilution antimicrobial susceptibility tests^56.
(§8) To assess antimicrobial activity across a diverse range of bacterial species, colonies were cultured overnight on Mueller Hinton agar plates (MHA; +5% sheep blood for S. pyogenes)^56 from frozen glycerol stock. Bacteria tested include Gram-negative rods (Escherichia coli: ATCC 9723H; Pseudomonas aeruginosa: ATCC 10148), Gram-positive cocci (Staphylococcus aureus: ATCC 6538P; Streptococcus pyogenes: unknown strain, hospital isolate), and Mycobacterium smegmatis (MC^2155; classified as neither Gram-positive nor Gram-negative). Bacterial suspensions were prepared by placing 3-5 morphologically similar colonies from the grown plate into sterile glass culture tubes containing 2 mL of Mueller Hinton Broth (MHB; +5% lysed horse blood for S. pyogenes) 56. Microbial inoculums from bacterial suspensions were prepared through a spectrophotometric adjustment of turbidity to 0.08-0.1 at 600 nm to achieve a turbidity equivalent to that of a 0.5 McFarland standard (1-2×10^8 CFU/mL)^29. The standardized bacterial inoculums were then diluted in MHB to obtain final cell densities of approximately […].
(§9) Ninety-six-well microtiter plates (Fisher Cat. No. CS003790; Nepean, Ontario, Canada) were prepared with 100 μL of E. coli, P. aeruginosa, S. aureus, S. pyogenes, or M. smegmatis bacterial suspension (5×10^5 CFU/mL) dispensed into each well of columns 1 through 11. Eleven microliters of the 10×AMP dilution series for all four peptides were added to each well from column 1 (2560 μg/mL) to column 10 (5 μg/mL) in all plates. Column 11 functioned as a positive control for bacterial growth in the absence of AMPs. Column 12 in each plate contained 100 μL of MHB as a sterility control (+5% lysed horse blood for S. pyogenes)^56. […]

[7] = test system: Mycobacterium smegmatis (MC^2155); conditions: Mycobacterium (MC^2155)
Procedure: as §5, §6, §7, §8, §9

[8] = test system: Pseudomonas aeruginosa: ATCC 10148; conditions: ATCC 10148
Procedure: as §5, §6, §7, §8, §9

[9] = test system: Staphylococcus aureus: ATCC 6538P; conditions: ATCC 6538
Procedure: as §5, §6, §7, §8, §9

[10] = test system: Streptococcus pyogenes: unknown strain, hospital isolate; conditions: unknown strain, hospital isolate
Procedure: as §5, §6, §7, §8, §9

Salmonella Enteritidis = test system: Salmonella Enteritidis
Excerpt: as §3, §4

Row | Structure (SMILES) | MIC [1] [µg/mL] | MBC [2] [µg/mL] | MIC [2] [µg/mL] | MIC [3] [µg/mL] | Minimum Inhibitory Concentration (MIC) [1] [µg/mL] | Minimum Inhibitory Concentration (MIC) [2] [µg/mL] | MBC [3] [µg/mL] | Minimum Inhibitory Concentration (MIC) [4] [µg/mL] | MIC [5] [µg/mL] | Minimum Inhibitory Concentration (MIC) [3] [µg/mL] | MBC [4] [µg/mL] | MIC [4] [µg/mL] | other results
1 | CC(C)C[C@H](NC(=O)[C@H](CS)NC(=O)[C@@H]1CCCN1C(=O)[C@H](CCCCN)NC(=O)[C@H](CCCNC(=N)N)NC(=O)[C@@H]1CCCN1C(=O)[C@H](Cc1ccccc1)NC(=O)[C@H](CO)NC(=O)[C@H](CCCCN)NC(=O)[C@@H](NC(=O)[C@H](Cc1c[nH]c2ccccc12)NC(=O)[C@H](CS)NC(=O)CNC(=O)[C@H](CCCNC(=N)N)NC(=O)[C@H](CC(C)C)NC(=O)[C@@H](N)CO)[C@@H](C)O)C(=O)N[C@@H](CCCNC(=N)N)C(=O)N[C@@H](CC(N)=O)C(=O)N[C@@H](CCCNC(=N)N)C(=O)O [HP3_S3R] (H-SLRGCWTKSFPRKPCLRNR-OH; N-terminus and C-terminus assumed) | 128 (≈ 55.5 µM) | 256 (≈ 111 µM) | 256 (≈ 111 µM) | 128 (≈ 55.5 µM) |  |  |  |  |  |  |  |  | 
2 | CC[C@H](C)[C@H](NC(=O)CNC(=O)[C@@H](NC(=O)[C@@H](NC(=O)[C@H](CCCCN)NC(=O)CNC(=O)[C@@H](NC(=O)[C@H](CCCCN)NC(=O)[C@H](CCCCN)NC(=O)[C@@H](NC(=O)[C@@H](NC(=O)[C@H](CC(=O)O)NC(=O)[C@H](CC(C)C)NC(=O)[C@H](CC(C)C)NC(=O)CN)[C@@H](C)CC)[C@@H](C)CC)[C@@H](C)O)[C@@H](C)O)[C@@H](C)O)C(=O)N[C@@H](CC(C)C)C(=O)N[C@@H](CCSC)C(=O)N[C@@H](CC(=O)O)C(=O)N[C@H](C(=O)N[C@@H](CC(C)C)C(=O)N[C@@H](CCCCN)C(=O)N[C@@H](CS)C(=O)N[C@@H](CS)C(=O)N[C@@H](CCSC)C(=O)N[C@H](C(=O)NCC(=O)N[C@@H](CCCNC(=N)N)C(=O)N[C@@H](CS)C(=O)N1CCC[C@H]1C(=O)N1CCC[C@H]1C(=O)N[C@@H](CO)C(=O)N[C@@H](CO)C(=O)O)[C@@H](C)O)[C@@H](C)O [P3_CCH_D8K_Q23C] (H-GLLDIIKKTGKTTGILMDTLKCCMTGRCPPSS-OH; N-terminus and C-terminus assumed) | 64 (≈ 18.9 µM) |  |  | 128 (≈ 37.8 µM) | 64 | 64 to 128 | 128 (≈ 37.8 µM) | 64 | 256 (≈ 75.7 µM) |  |  |  | MBC [1]: 64 µg/mL (≈ 18.9 µM); Minimum Inhibitory Concentration (MIC) ([3]; CPO E. coli NDM, Gram negative): 128+ ug/mL
3 | CC[C@H](C)[C@H](NC(=O)[C@H](CCCCN)NC(=O)[C@@H](NC(=O)[C@H](C)NC(=O)[C@H](Cc1ccccc1)NC(=O)[C@H](CC(=O)O)NC(=O)[C@H](CCCCN)NC(=O)CNC(=O)[C@@H](NC(=O)[C@@H](NC(=O)[C@H](CCCCN)NC(=O)[C@@H](NC(=O)[C@@H](NC(=O)[C@H](CC(=O)O)NC(=O)[C@H](CC(C)C)NC(=O)[C@H](CC(C)C)NC(=O)CN)[C@@H](C)CC)[C@@H](C)CC)[C@@H](C)O)[C@@H](C)O)C(C)C)C(=O)N[C@@H](CC(C)C)C(=O)N[C@@H](CC(=O)O)C(=O)N[C@@H](CC(N)=O)C(=O)N[C@@H](CC(C)C)C(=O)N[C@@H](CCCCN)C(=O)N[C@@H](CS)C(=O)N[C@@H](CCCCN)C(=O)N[C@@H](CC(C)C)C(=O)N[C@@H](C)C(=O)NCC(=O)NCC(=O)N[C@@H](CS)C(=O)N1CCC[C@H]1C(=O)N1CCC[C@H]1C(=O)O [Peptide P4_CCH] (H-GLLDIIKTTGKDFAVKILDNLKCKLAGGCPP-OH; N-terminus and C-terminus assumed) |  | 64 (≈ 19.7 µM) | 32 (≈ 9.87 µM) |  | 32 to 64 | 32 |  | 64 | 256 (≈ 78.9 µM) | 64 to 128 |  |  | MBC [6]: 128 µg/mL (≈ 39.5 µM); MIC [6]: 128 µg/mL (≈ 39.5 µM); MBC [7]: >256 µg/mL; MIC [7]: 8 µg/mL (≈ 2.47 µM); MBC [8]: >256 µg/mL; MIC [8]: >256 µg/mL; MBC [9]: >256 µg/mL; MIC [9]: >256 µg/mL; MBC [10]: 256 µg/mL (≈ 78.9 µM); MIC [10]: 256 µg/mL (≈ 78.9 µM)
4 | CC[C@H](C)[C@H](NC(=O)[C@H](CCCCN)NC(=O)[C@@H](NC(=O)[C@H](C)NC(=O)[C@H](Cc1ccccc1)NC(=O)[C@H](CC(=O)O)NC(=O)[C@H](CCCCN)NC(=O)CNC(=O)[C@@H](NC(=O)[C@@H](NC(=O)[C@H](CCCCN)NC(=O)[C@@H](NC(=O)[C@@H](NC(=O)[C@H](CC(=O)O)NC(=O)[C@H](CC(C)C)NC(=O)[C@H](CC(C)C)NC(=O)CN)[C@@H](C)CC)[C@@H](C)CC)[C@@H](C)O)[C@@H](C)O)C(C)C)C(=O)N[C@@H](CC(C)C)C(=O)N[C@@H](CC(=O)O)C(=O)N[C@@H](CC(N)=O)C(=O)N[C@@H](CC(C)C)C(=O)N[C@@H](CCCCN)C(=O)N[C@@H](CS)C(=O)N[C@@H](CCCCN)C(=O)N[C@@H](CC(C)C)C(=O)N[C@@H](C)C(=O)NCC(=O)NCC(=O)N[C@@H](CS)C(=O)N1CCC[C@H]1C(=O)N[C@@H](CCCCN)C(=O)O [Peptide P4_CCH_P31K] (H-GLLDIIKTTGKDFAVKILDNLKCKLAGGCPK-OH; N-terminus and C-terminus assumed) |  |  |  |  | 16 to 32 | 16 to 32 |  | 32 | 128 (≈ 39.1 µM) | 32 to 64 | 32 (≈ 9.77 µM) | 32 (≈ 9.77 µM) | MBC (Salmonella Enteritidis): 256 µg/mL (≈ 78.2 µM); MIC (Salmonella Enteritidis): 256 µg/mL (≈ 78.2 µM); Minimum Inhibitory Concentration (MIC) ([5]; S. enterica spp. Heidelberg, Gram negative): 128+ ug/mL
5 | CC[C@H](C)[C@H](NC(=O)[C@H](C)NC(=O)[C@@H]1CCCN1C(=O)[C@@H](N)Cc1ccccc1)C(=O)N[C@H](C(=O)N[C@@H](CS)C(=O)N[C@@H](CCCCN)C(=O)N[C@H](C(=O)N[C@@H](CO)C(=O)N[C@@H](CCCCN)C(=O)N[C@@H](CCCCN)C(=O)N[C@@H](CS)C(=O)O)C(C)C)[C@@H](C)CC [Peptide P8_CCH_N11K, FPAIICKVSKKC] (H-FPAIICKVSKKC-OH; N-terminus and C-terminus assumed) |  |  |  | 128 (≈ 95.8 µM) |  |  | 128 (≈ 95.8 µM) |  |  |  | 128 (≈ 95.8 µM) | 128 (≈ 95.8 µM) | 
